# Assay results from US5861520A, “Glycolipid analogs” (Seikagaku Kogyo Kabushiki Kaisha (Seikagaku Corporation), priority 1994, dated 1999).
# “Also recorded” adds a separate entry of the source.
# Assays:
# Type in all cases: biochemical
# β-galactocerebrosidase [1] = molecular target: T1, β-galactocerebrosidase (Mus musculus, UniProt P54818); experiment: β-galactocerebrosidase inhibition with NBD-galactocerebroside (fluorescence-labeled natural substrate), mouse brain microsome; details: for inhibition of β-galactocerebrosidase activity (in words) / inhibition at 10 µM: 10 μM; for inhibition at 10 µM / IC50: NBD-galactocerebroside, mouse brain microsome
# T1 construct: mouse brain microsome as an enzyme source; from tissue; host or cells: mouse brain microsome
# T1 sequence (P54818 43-684): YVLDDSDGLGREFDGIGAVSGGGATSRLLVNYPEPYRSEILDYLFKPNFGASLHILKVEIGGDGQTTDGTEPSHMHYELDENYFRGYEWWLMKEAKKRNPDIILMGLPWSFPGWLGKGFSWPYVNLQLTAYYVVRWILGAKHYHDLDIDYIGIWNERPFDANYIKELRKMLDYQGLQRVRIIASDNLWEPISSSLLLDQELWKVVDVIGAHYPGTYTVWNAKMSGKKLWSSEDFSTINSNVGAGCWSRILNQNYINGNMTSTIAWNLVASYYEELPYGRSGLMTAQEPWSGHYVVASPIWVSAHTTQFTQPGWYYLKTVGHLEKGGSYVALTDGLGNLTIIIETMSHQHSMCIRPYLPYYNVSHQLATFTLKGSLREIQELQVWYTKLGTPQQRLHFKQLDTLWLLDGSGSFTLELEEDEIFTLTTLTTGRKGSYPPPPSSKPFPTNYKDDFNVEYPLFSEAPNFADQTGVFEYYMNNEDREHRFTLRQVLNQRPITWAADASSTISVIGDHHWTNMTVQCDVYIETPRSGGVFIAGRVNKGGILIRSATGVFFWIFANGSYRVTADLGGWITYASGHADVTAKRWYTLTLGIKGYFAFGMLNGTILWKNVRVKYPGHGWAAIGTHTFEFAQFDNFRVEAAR
# Protocol: (§1) Glycosidase inhibitory effects of glycolipid analogs (1) The inhibitory effects of each of compounds 1E, 1Z, 2E and 2Z synthesized in Examples 1 to 4 on β-glucocerebrosidase and β-galactocerebrosidase were determined by using fluorescence-labeled natural substrates, i.e., 12-[N-methyl-N-(7-nitro-2-oxa-1,3-diaxol-4-yl)]aminododecanoic acid (NBD)-glucocerebroside and NBD-galactocrebroside. Namely, the β-glucocerebrosidease activity was determined in accordance with the method of Granbowski et al. [Clin. Chim. Acta., […], 123-135 (1982)] with the use of mouse liver microsome as an enzyme source. On the other hand, the β-galactocerebrosidase activity was determined in accordance with the method of Raghavan et al. [Biochim. Biophys. Acta, 877, 1-8 (1986)] with the use of mouse brain microsome as an enzyme source. […] Each substrate was used in a constant and large excess amount over the corresponding enzyme. […] IC50 levels (the concentration necessary for inhibiting 50% of the enzyme activity) of compounds 1E and 1Z were 0.3 μM and 0.1 μM, respectively. […] The inhibition (%) was determined in accordance with the following formula. [formula]
# (§2) Under the same conditions as employed above, further, the inhibitory effects of the following compound C-1 [in the formula (a), X=NH, sugar analog=glucose type] being similar to the glycolipid analogs of the present invention and the sugar analogs C-2 to C-4 represented by the following formula [synthesized by the method similar to in the synthesis of compound C-1] were examined and compared.
# β-glucocerebrosidase [2] = molecular target: T2, β-glucocerebrosidase (Mus musculus, UniProt P17439); experiment: β-glucocerebrosidase inhibition with NBD-glucocerebroside (fluorescence-labeled natural substrate), mouse liver microsome; details: for inhibition at 10 µM / IC50: NBD-glucocerebroside, mouse liver microsome; for inhibition at 10 µM / inhibition of β-glucocerebrosidase activity (in words): 10 μM; for enhancement of β-glucocerebrosidase inhibition compared with C-1 and C-3 (in words): compared with saturated analogs C-1 and C-3
# T2 construct: mouse liver microsome as an enzyme source; from tissue; host or cells: mouse liver microsome
# T2 sequence (P17439 20-515): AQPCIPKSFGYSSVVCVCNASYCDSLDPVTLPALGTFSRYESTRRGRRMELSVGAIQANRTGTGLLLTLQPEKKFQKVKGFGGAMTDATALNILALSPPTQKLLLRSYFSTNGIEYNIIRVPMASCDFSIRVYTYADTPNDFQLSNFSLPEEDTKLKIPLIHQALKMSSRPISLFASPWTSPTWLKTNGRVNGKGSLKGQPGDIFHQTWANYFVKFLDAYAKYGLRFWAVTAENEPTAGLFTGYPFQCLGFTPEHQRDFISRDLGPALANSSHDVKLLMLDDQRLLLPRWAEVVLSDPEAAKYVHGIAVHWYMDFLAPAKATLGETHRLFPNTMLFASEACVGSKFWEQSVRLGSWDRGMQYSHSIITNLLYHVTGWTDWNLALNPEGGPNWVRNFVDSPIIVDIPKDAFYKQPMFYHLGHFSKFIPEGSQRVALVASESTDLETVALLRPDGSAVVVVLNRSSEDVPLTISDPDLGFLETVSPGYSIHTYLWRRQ
# Protocol: as §1, §2
# β-galactocerebrosidase [3] = experiment: β-galactocerebrosidase inhibition, 4-methyl-umbelliferyl substrate; details: mouse brain microsome, 4-methyl-umbelliferyl glucoside
# Protocol: (§3) (2) The inhibitory effects of each of compounds 1E, 1Z, 2E and 2Z synthesized in Examples 1 to 4, the above-described compound C-1 and the following compounds C-5 and C-6 on β-glucocerebrosidase and β-galactocerebrosidase were determined by the following method. Namely, the same enzyme sources as employed in the above (1) were used, while 4-methyl-umbelliferyl glucoside was used as a substrate. The inhibition (%) and IC50 were determined in accordance with the method of Peter et al. [Clin. Chim. Acta, 60, 391-396 (1975)]. In each case, the substrate was used in a constant and large excess amount over the corresponding enzyme.
# β-glucocerebrosidase [4] = molecular target: T2, β-glucocerebrosidase; experiment: β-glucocerebrosidase inhibition with 4-methyl-umbelliferyl glucoside as substrate; details: mouse liver microsome
# Protocol: as §3
Structure (SMILES),inhibition of β-galactocerebrosidase activity (in words) (β-galactocerebrosidase [1]),inhibition at 10 µM (β-galactocerebrosidase [1]) [%],IC50 (β-galactocerebrosidase [1]) [nM],inhibition at 10 µM (β-glucocerebrosidase [2]) [%],40 μM inhibition (%) (β-galactocerebrosidase [3]),IC50 (β-galactocerebrosidase [3]) [nM],inhibition at 40 µM (β-glucocerebrosidase [4]) [%],inhibition of β-glucocerebrosidase activity (in words) (β-glucocerebrosidase [2]),IC50 (β-glucocerebrosidase [2]) [nM],enhancement of β-glucocerebrosidase inhibition compared with C-1 and C-3 (in words) (β-glucocerebrosidase [2]),IC50 (β-glucocerebrosidase [4]) [nM]
"CCCCCCCCCCCCC/C=C/[C@@H](O)[C@H](CN[C@@H]1C=C(CO)[C@H](O)[C@H](O)[C@H]1O)NC(=O)CCCCCCCCCCCCCCC [Compound 2E, (2S,3R,4E)-1-[(5a-carba-α-L-arabino-hex-5-enopyranosyl)amino]-2-(hexadecanoylamino)-4-octadecen-3-ol]",strongly and specifically inhibited the β-galactocerebrosidase activity alone,92.6,1600,0,95,1250,31,–,–,–,–
"CCCCCCCCCCCCC/C=C/[C@@H](O)[C@H](CN[C@@H]1C[C@H](CO)[C@H](O)[C@H](O)[C@H]1O)NC(=O)CCCCCCCCCCCCCCC [Compound C-2, reference compound]",slightly inhibited the β-galactocerebrosidase activity,12.9,–,0,–,–,–,–,–,–,–
"CCCCCCCCCCCCC/C=C/[C@@H](O)[C@H](CN[C@@H]1C=C(CO)[C@@H](O)[C@H](O)[C@H]1O)NC(=O)CCCCCCCCCCCCCCC [Compound 1E, (2S,3R,4E)-1-[(5a-carba-β-D-xylo-hex-5-enopyranosyl)amino]-2-(hexadecanoylamino)-4-octadecen-3-ol]",–,0,–,95.2,1,–,97,strongly and specifically inhibited the β-glucocerebrosidase activity alone; also recorded: almost completely inhibited the β-glucocerebrosidase activity,300,extremely enhanced,580
"CCCCCCCCCCCCC/C=C/[C@@H](O)[C@H](CS[C@@H]1C[C@H](CO)[C@@H](O)[C@H](O)[C@H]1O)NC(=O)CCCCCCCCCCCCCCC [Compound C-6, reference compound]",–,–,–,–,0,–,0,–,–,–,–
"CCCCCCCCCCCCC/C=C\[C@@H](O)[C@H](CN[C@@H]1C=C(CO)[C@@H](O)[C@H](O)[C@H]1O)NC(=O)CCCCCCCCCCCCCCC [Compound 1Z, (2S,3R,4Z)-1-[(5a-carba-β-D-xylo-hex-5-enopyranosyl)amino]-2-(hexadecanoylamino)-4-octadecen-3-ol]",–,0,–,97.7,1,–,99,strongly and specifically inhibited the β-glucocerebrosidase activity alone; also recorded: almost completely inhibited the β-glucocerebrosidase activity,100,extremely enhanced,440
"CCCCCCCCCCCCC/C=C/[C@@H](O)[C@H](CO[C@@H]1C[C@H](CO)[C@@H](O)[C@H](O)[C@H]1O)NC(=O)CCCCCCCCCCCCCCC [Compound C-5, reference compound]",–,–,–,–,31,–,0,–,–,–,–
"CCCCCCCCCCCCC/C=C\[C@@H](O)[C@H](CN[C@@H]1C[C@H](CO)[C@H](O)[C@H](O)[C@H]1O)NC(=O)CCCCCCCCCCCCCCC [Compound C-4, reference compound]",slightly inhibited the β-galactocerebrosidase activity,15.4,–,0,–,–,–,–,–,–,–
"CCCCCCCCCCCCC/C=C\[C@@H](O)[C@H](CN[C@@H]1C=C(CO)[C@H](O)[C@H](O)[C@H]1O)NC(=O)CCCCCCCCCCCCCCC [Compound 2Z, (2S,3R,4Z)-1-[(5a-carba-α-L-arabino-hex-5-enopyranosyl)amino]-2-(hexadecanoylamino)-4-octadecen-3-ol]",strongly and specifically inhibited the β-galactocerebrosidase activity alone,87.2,2300,0,92,1850,43,–,–,–,–
"CCCCCCCCCCCCC/C=C/[C@@H](O)[C@H](CN[C@@H]1C[C@H](CO)[C@@H](O)[C@H](O)[C@H]1O)NC(=O)CCCCCCCCCCCCCCC [Compound C-1, reference compound]",–,0,–,37.3,7,–,56,–,–,–,–
"CCCCCCCCCCCCC/C=C\[C@@H](O)[C@H](CN[C@@H]1C[C@H](CO)[C@@H](O)[C@H](O)[C@H]1O)NC(=O)CCCCCCCCCCCCCCC [Compound C-3, reference compound]",–,2.3,–,64,–,–,–,–,–,–,–
